We go through 10 compounds from ChEMBL document CHEMBL1201862, “PubChem BioAssay data set” (2004).

Some test systems named below: HL-60; NCI-H23; NCI-H460; A498; OVCAR-4; HCT-15; MOLT-4; SF-268; LOX IMVI; HOP-62; NCI/ADR-RES; COLO 205; NCI-H226; Malme-3M; EKVX; SNB-19; SK-MEL-5; OVCAR-8; SF-539; RXF 393.
What all share (experiment): NCI-60 cell line screen, 48 h

The structures appear in SMILES notation.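 Five compound concentrations were applied to cells in 96-well plates for 48 hours; endpoints were derived by simple linear interpolation of the resulting dose-response curve. GI50 is the concentration that inhibits growth by half.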 Calls of active or inactive are those of the source. Cut-off read from the data, not from the text of the source: active = GI50 up to about 1.1 µM and inactive = higher. Bounds are passed on as bounds.

`CC(C)CC1C(=O)NCCC(NC(=O)C(N)Cc2ccc(O)cc2)C(=O)NC(Cc2ccccc2)C(=O)NC(Cc2ccccc2)NC1=O` (stereo not given): the GI50 in the assay on HL-60 was > 100 µM (inactive); with NCI-H23, > 100 µM (inactive); in the assay with NCI-H460, > 100 µM (inactive); with A498, > 100 µM (inactive); in the assay on OVCAR-4, > 100 µM (inactive); in the assay on HCT-15, above 100 µM. Moreover, the GI50 in the assay with MOLT-4, in the assay on SF-268, in the assay on LOX IMVI, in the assay with HOP-62, with NCI/ADR-RES and in the assay with COLO 205 was > 100 µM (inactive) in each case. Moreover, the GI50 with NCI-H226 is > 100 µM (inactive); in the assay on Malme-3M it was > 100 µM (inactive); in the assay on EKVX it was > 100 µM (inactive); in the assay on SNB-19, > 100 µM (inactive); in the assay on SK-MEL-5, 17.9 µM (inactive); in the assay on OVCAR-8, > 100 µM (inactive). The GI50 in the assay with SF-539 and in the assay on RXF 393 was > 100 µM (inactive) throughout.

As to `Cc1c(C(=O)c2ccc(N)c3ccccc23)c2ccccc2n1CCN1CCOCC1`, the GI50 with HL-60 is 22.3 µM (inactive); in the assay with NCI-H23, 29.7 µM (inactive); in the assay with NCI-H460, 3.4 µM (inactive); in the assay on A498 it was 29.3 µM (inactive); in the assay with OVCAR-4, 3.1 µM (inactive); in the assay on HCT-15 it was 21 µM. The GI50 with MOLT-4 was 12 µM (inactive); with SF-268, 28.6 µM (inactive); in the assay on LOX IMVI, 22.5 µM (inactive); with HOP-62 it was 5.74 µM (inactive); in the assay on NCI/ADR-RES, 23.4 µM (inactive); in the assay on COLO 205, 27.5 µM (inactive). For the same compound, the GI50 in the assay on NCI-H226 was 32.1 µM (inactive); with Malme-3M, 18.3 µM (inactive); in the assay on EKVX, 29.1 µM (inactive); with SNB-19, 21.5 µM (inactive); with SK-MEL-5, 15.5 µM (inactive); in the assay on OVCAR-8, 31.2 µM (inactive). Moreover, the figures for the GI50 with SF-539 and in the assay with RXF 393 were 19.7 µM (inactive) and 24.2 µM (inactive), respectively.

With `CC(=O)OCC1(C)C(O)CCC2(C)C1CCC1CC3CC12CCC3(O)CO` (stereo not given), the GI50 is 6.35 µM (inactive) with HL-60; 58.7 µM (inactive) in the assay on NCI-H23; 6.75 µM (inactive) with NCI-H460; 0.541 µM (active) in the assay on A498; > 87.5 µM (inactive) in the assay on OVCAR-4; above 100 µM in the assay with HCT-15. In addition, the GI50 in the assay on MOLT-4 was > 56.5 µM (inactive); in the assay with SF-268 it was > 80.2 µM (inactive); in the assay with LOX IMVI, 44.3 µM (inactive); in the assay on HOP-62, 36.5 µM (inactive); in the assay with NCI/ADR-RES it was 37.7 µM (inactive); with COLO 205 it was > 100 µM (inactive). Further, the GI50 in the assay with NCI-H226 was > 100 µM (inactive); in the assay with Malme-3M, > 100 µM (inactive); in the assay on EKVX, > 100 µM (inactive); in the assay on SNB-19, > 100 µM (inactive); in the assay on SK-MEL-5, > 79.4 µM (inactive); in the assay with OVCAR-8, 44.1 µM (inactive). For the same compound, the values for the GI50 in the assay on SF-539 and with RXF 393 were 50.6 µM (inactive) and > 100 µM (inactive), respectively.

For `CS(=O)(=O)c1ccc(C2=C(c3ccccc3)C(=O)OC2)cc1` [ROFECOXIB], the GI50 was > 100 µM (inactive) in the assay with HL-60; > 100 µM (inactive) with NCI-H23; > 100 µM (inactive) in the assay on NCI-H460; > 100 µM (inactive) in the assay on A498; > 100 µM (inactive) in the assay with OVCAR-4; above 100 µM in the assay with HCT-15. For the same compound, the GI50 in the assay on MOLT-4, in the assay on SF-268, in the assay on LOX IMVI, in the assay with HOP-62, with NCI/ADR-RES and in the assay with COLO 205 was > 100 µM (inactive) throughout. The GI50 in the assay on NCI-H226, in the assay with Malme-3M, with EKVX, in the assay on SNB-19, with SK-MEL-5 and in the assay with OVCAR-8 was > 100 µM (inactive) each time. For the same compound, the GI50 in the assay with SF-539 and with RXF 393 was > 100 µM (inactive) each time.

As to `S=C(/N=c1\sc(NCc2ccccc2)nc2sc3c(c12)CCN(N1CCc2c(sc4nc(NCc5ccccc5)s/c(=N\C(=S)NCc5ccccc5)c24)C1)C3)NCc1ccccc1`, the GI50 in the assay on HL-60 was 25.4 µM (inactive); in the assay on NCI-H23 it was 24.6 µM (inactive); in the assay with NCI-H460, 54.8 µM (inactive); with A498, 52 µM (inactive); in the assay on OVCAR-4, 36.7 µM (inactive); in the assay with HCT-15, 22.3 µM. Moreover, the GI50 is 14.3 µM (inactive) with MOLT-4; 27.4 µM (inactive) with SF-268; 15 µM (inactive) in the assay on LOX IMVI; 27.5 µM (inactive) with HOP-62; 37.8 µM (inactive) in the assay with NCI/ADR-RES; 32.1 µM (inactive) in the assay on COLO 205. The GI50 is 49.9 µM (inactive) in the assay with NCI-H226; 70.3 µM (inactive) in the assay with Malme-3M; 19.9 µM (inactive) with EKVX; 28.2 µM (inactive) in the assay on SNB-19; 87.5 µM (inactive) in the assay with SK-MEL-5; 20.9 µM (inactive) in the assay on OVCAR-8. Further, the GI50 in the assay with SF-539 is 23.4 µM (inactive); in the assay on RXF 393 it was 36.1 µM (inactive).

As to `COC(=O)/C=C(/C(=O)OC)c1c(C)cc2c(C)cc(C)cc(C)c1-2`, the GI50 in the assay on HL-60 is 4.13 µM (inactive); with NCI-H23, 18.5 µM (inactive); with NCI-H460, 19.9 µM (inactive); in the assay with A498, 26.4 µM (inactive); in the assay on OVCAR-4, 22.3 µM (inactive); in the assay with HCT-15, 4.56 µM. Also, the GI50 with MOLT-4 was 5.46 µM (inactive); in the assay with SF-268 it was 19.1 µM (inactive); in the assay on LOX IMVI, 11.7 µM (inactive); in the assay with HOP-62, 9.14 µM (inactive); with NCI/ADR-RES it was 9.33 µM (inactive); with COLO 205, 7.24 µM (inactive). The GI50 was 21.1 µM (inactive) in the assay with NCI-H226; 11.5 µM (inactive) with Malme-3M; 32.1 µM (inactive) in the assay with EKVX; 9.89 µM (inactive) with SNB-19; 8.15 µM (inactive) in the assay with SK-MEL-5; 25.4 µM (inactive) with OVCAR-8. The results for the GI50 in the assay on SF-539 and in the assay with RXF 393 were 9.12 µM (inactive) and 18.8 µM (inactive), respectively.

In the case of `COC(=O)N/N=C(\C)C(CN1CCOCC1)C(c1ccccc1)c1cc2ccccc2oc1=O` (stereo not given), the GI50 was 36.3 µM (inactive) in the assay on HL-60; > 100 µM (inactive) in the assay with NCI-H23; > 100 µM (inactive) in the assay on NCI-H460; > 100 µM (inactive) in the assay on A498; 74.3 µM (inactive) in the assay with OVCAR-4; above 100 µM in the assay on HCT-15. Besides, the GI50 with MOLT-4 is 44.2 µM (inactive); in the assay on SF-268, > 100 µM (inactive); with LOX IMVI, > 100 µM (inactive); with HOP-62, > 100 µM (inactive); with NCI/ADR-RES, 55.8 µM (inactive); in the assay on COLO 205, 52.6 µM (inactive). The GI50 with NCI-H226 is > 100 µM (inactive); with Malme-3M it was 62.5 µM (inactive); with EKVX, > 100 µM (inactive); in the assay with SNB-19, > 100 µM (inactive); with SK-MEL-5, > 100 µM (inactive); in the assay on OVCAR-8, > 100 µM (inactive). For the same compound, the GI50 with SF-539 is > 100 µM (inactive); with RXF 393, 72.1 µM (inactive).

Regarding `CSc1ccc2c(c1)N(CCCN(C)C)c1ccccc1S2`, the GI50 was 12 µM (inactive) in the assay on HL-60; 16.4 µM (inactive) with NCI-H23; 10.8 µM (inactive) in the assay with NCI-H460; 11.2 µM (inactive) with A498; 11.5 µM (inactive) in the assay with OVCAR-4; 15 µM in the assay with HCT-15. Also, the GI50 in the assay with MOLT-4 was 5.81 µM (inactive); in the assay with SF-268, 13.6 µM (inactive); in the assay with LOX IMVI it was 11.6 µM (inactive); in the assay with HOP-62, 14 µM (inactive); with NCI/ADR-RES, 12.1 µM (inactive); in the assay on COLO 205, 12.7 µM (inactive). For the same compound, the GI50 was 19.8 µM (inactive) in the assay with NCI-H226; 9.16 µM (inactive) in the assay with Malme-3M; 18.6 µM (inactive) in the assay on EKVX; 16.2 µM (inactive) in the assay on SNB-19; 11.4 µM (inactive) in the assay with SK-MEL-5; 17.2 µM (inactive) in the assay with OVCAR-8. Also, the GI50 in the assay with SF-539 is 17.3 µM (inactive); in the assay with RXF 393, 7.55 µM (inactive).

On to `COc1ccccc1C(=O)N(Cc1ccccc1)c1ccc(Cl)c(C(=O)OC(C)C)c1`, for which the GI50 in the assay on HL-60 was 9.4 µM (inactive); with NCI-H23, 20.6 µM (inactive); in the assay with NCI-H460, 21.4 µM (inactive); in the assay with A498, 37.3 µM (inactive); in the assay with OVCAR-4, 15.6 µM (inactive); with HCT-15, 19.8 µM. In addition, the GI50 with MOLT-4 is 14.4 µM (inactive); in the assay with SF-268, 42.3 µM (inactive); in the assay with LOX IMVI, 28.2 µM (inactive); with HOP-62 it was 18.8 µM (inactive); with NCI/ADR-RES it was 20.2 µM (inactive); in the assay on COLO 205, 20.9 µM (inactive). Moreover, the GI50 with NCI-H226 was 13.6 µM (inactive); in the assay with Malme-3M, 21.9 µM (inactive); in the assay with EKVX, 16.7 µM (inactive); with SNB-19, 24.3 µM (inactive); in the assay on SK-MEL-5, 11.7 µM (inactive); in the assay on OVCAR-8, 27.8 µM (inactive). The GI50 in the assay on SF-539 is 30.6 µM (inactive); with RXF 393 it was 11.8 µM (inactive).

For the compound `COC1=C(N=[N+]=[N-])C(=O)c2ncccc2C1=O`, the GI50 is 0.962 µM (active) with HL-60; 5.36 µM (inactive) with NCI-H23; 15.7 µM (inactive) with NCI-H460; 17.1 µM (inactive) in the assay with A498; 2.69 µM (inactive) with OVCAR-4; 7.83 µM in the assay with HCT-15. Also, the GI50 was 0.887 µM (active) in the assay with MOLT-4; 14.5 µM (inactive) in the assay on SF-268; 3.3 µM (inactive) in the assay on LOX IMVI; 15.8 µM (inactive) in the assay on HOP-62; 10 µM (inactive) in the assay on NCI/ADR-RES; 3.04 µM (inactive) in the assay on COLO 205. In addition, the GI50 is 19.2 µM (inactive) with NCI-H226; 2.33 µM (inactive) in the assay on Malme-3M; 8.61 µM (inactive) with EKVX; 17.1 µM (inactive) in the assay on SNB-19; 10.1 µM (inactive) in the assay with SK-MEL-5; 3.47 µM (inactive) in the assay with OVCAR-8. Further, the GI50 is 16 µM (inactive) in the assay with SF-539 and 3.75 µM (inactive) in the assay with RXF 393.
